Reference: paper PMC5698469, “Carrageenan catabolism is encoded by a complex regulon in marine heterotrophic bacteria” (Nature Communications, 2017)
Where a name gives a salt, the structure may show the parent alone.

Legend:
[1] = biological target: T1, ZGAL_3152 (DagB, GH129-like) (Zobellia galactanivorans, UniProt G0L004); test: FACE and MALDI-TOF-MS; format: biochemical; details: 0.5% hexasaccharide fraction, 150 mM NaCl, 3.75 mM CaCl2, 100 mM HEPES pH 7.5, room temperature overnight
T1 construct: gene zobellia_3152; recombinant, E. coli BL21(DE3), pFO4, IMAC purified; homodimer, residues Pro35-Asp693 described in structure
T1 sequence (G0L004 entry or part of it): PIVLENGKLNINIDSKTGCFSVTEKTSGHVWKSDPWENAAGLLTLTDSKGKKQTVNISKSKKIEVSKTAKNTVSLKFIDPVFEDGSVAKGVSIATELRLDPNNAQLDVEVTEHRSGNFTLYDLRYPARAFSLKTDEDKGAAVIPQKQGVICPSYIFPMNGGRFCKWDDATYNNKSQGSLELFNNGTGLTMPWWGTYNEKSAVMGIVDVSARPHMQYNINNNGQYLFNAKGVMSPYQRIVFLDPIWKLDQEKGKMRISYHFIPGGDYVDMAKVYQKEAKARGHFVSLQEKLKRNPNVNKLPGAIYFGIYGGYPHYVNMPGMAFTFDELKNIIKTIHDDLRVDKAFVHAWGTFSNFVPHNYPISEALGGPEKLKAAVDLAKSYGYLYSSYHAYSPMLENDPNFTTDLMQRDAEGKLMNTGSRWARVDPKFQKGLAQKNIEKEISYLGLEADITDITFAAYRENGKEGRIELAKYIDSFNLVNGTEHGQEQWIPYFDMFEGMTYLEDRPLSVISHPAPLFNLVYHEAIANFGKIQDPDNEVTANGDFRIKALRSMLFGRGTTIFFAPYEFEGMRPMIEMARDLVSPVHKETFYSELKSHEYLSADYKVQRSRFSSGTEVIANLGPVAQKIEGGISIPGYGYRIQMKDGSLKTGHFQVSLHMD

[2] = biological target: 3,6-anhydro-D-galactonate cycloisomerase DauB (ZGAL_3156) (Zobellia galactanivorans); test: crystal structure; hanging drop vapor diffusion; 0.2 M tri potassium citrate, 20% PEG 3350, 25 mg/mL ZGAL_3156; data at 100 K
[3] = biological target: 3,6-anhydro-D-galactonate cycloisomerase DauB (ZGAL_3156) (Zobellia galactanivorans); test: SEC; size-exclusion column analysis of ZGAL_3156 in solution (Supplementary Fig. 9)
ZGAL_3146 (CgsB1, S1_7) = biological target: T2, ZGAL_3146 (CgsB1, S1_7) (Zobellia galactanivorans, UniProt G0L7B4); test: sulfatase activity on artificial substrate; format: biochemical
T2 construct: gene idsA3
T2 sequence (G0L7B4 19-544): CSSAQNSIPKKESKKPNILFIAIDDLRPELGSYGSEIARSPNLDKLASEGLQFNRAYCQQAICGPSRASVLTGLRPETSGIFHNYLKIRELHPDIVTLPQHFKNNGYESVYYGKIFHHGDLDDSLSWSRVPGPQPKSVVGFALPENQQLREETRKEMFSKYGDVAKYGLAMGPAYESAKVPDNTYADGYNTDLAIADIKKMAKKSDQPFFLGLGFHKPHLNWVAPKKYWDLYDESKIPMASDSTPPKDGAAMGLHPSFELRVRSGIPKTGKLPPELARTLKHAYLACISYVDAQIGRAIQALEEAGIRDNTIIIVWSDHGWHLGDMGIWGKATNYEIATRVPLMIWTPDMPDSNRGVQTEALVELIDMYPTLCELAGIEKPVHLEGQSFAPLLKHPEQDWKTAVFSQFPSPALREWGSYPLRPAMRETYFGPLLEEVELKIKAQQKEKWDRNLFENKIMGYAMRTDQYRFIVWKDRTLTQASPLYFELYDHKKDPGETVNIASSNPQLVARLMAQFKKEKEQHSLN

ZGAL_3151 (CgsC, S1_17) = biological target: T3, ZGAL_3151 (CgsC, S1_17) (Zobellia galactanivorans, UniProt G0L7B6); test: sulfatase activity on artificial substrate; format: biochemical
T3 construct: gene zobellia_3151
T3 sequence (G0L7B6 40-596): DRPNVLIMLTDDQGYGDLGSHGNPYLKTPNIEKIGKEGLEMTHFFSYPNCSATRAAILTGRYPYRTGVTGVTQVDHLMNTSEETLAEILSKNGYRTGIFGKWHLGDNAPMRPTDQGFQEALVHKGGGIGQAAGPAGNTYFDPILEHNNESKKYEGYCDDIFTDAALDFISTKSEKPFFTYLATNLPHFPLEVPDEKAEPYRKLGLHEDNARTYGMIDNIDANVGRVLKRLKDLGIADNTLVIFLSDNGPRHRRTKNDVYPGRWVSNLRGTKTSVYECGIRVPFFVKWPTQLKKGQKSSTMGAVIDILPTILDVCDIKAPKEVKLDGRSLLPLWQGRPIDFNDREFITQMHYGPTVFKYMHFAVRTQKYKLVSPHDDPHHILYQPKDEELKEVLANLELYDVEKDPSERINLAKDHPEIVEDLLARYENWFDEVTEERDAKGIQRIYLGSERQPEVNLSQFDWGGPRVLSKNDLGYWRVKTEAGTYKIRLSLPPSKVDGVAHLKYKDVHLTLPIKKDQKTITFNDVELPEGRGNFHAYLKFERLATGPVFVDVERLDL

ZGAL_3145 (CgsA, S1_19) = biological target: T4, ZGAL_3145 (CgsA, S1_19) (Zobellia galactanivorans, UniProt G0L000); test: sulfatase activity on artificial substrate; format: biochemical
T4 construct: gene zobellia_3145
T4 sequence (G0L000 44-511): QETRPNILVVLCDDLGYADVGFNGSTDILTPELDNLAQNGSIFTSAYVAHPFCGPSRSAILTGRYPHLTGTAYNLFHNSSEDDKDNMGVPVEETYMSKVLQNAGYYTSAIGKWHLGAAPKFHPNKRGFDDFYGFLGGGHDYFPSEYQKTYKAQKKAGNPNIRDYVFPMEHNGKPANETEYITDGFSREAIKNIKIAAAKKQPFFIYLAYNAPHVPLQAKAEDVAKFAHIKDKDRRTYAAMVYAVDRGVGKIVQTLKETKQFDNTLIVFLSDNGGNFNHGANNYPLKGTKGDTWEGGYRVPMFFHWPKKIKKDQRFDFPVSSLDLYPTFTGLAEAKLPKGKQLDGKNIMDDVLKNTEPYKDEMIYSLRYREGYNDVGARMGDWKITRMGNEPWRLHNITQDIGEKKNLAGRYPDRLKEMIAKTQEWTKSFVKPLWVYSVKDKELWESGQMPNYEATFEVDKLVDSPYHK

[4] = biological target: T5, ZGAL_3148 (DagA2, GH127-2) (Zobellia galactanivorans, UniProt G0L7B5); test: FACE and MALDI MS, E. coli soluble lysate; format: biochemical; details: 0.5% hexasaccharide fraction, 150 mM NaCl, 3.75 mM CaCl2, 100 mM HEPES pH 7.5, room temperature overnight
T5 construct: gene zobellia_3148; recombinant, soluble lysate of E. coli BL21(DE3), pFO4
T5 sequence (G0L7B5 1-656): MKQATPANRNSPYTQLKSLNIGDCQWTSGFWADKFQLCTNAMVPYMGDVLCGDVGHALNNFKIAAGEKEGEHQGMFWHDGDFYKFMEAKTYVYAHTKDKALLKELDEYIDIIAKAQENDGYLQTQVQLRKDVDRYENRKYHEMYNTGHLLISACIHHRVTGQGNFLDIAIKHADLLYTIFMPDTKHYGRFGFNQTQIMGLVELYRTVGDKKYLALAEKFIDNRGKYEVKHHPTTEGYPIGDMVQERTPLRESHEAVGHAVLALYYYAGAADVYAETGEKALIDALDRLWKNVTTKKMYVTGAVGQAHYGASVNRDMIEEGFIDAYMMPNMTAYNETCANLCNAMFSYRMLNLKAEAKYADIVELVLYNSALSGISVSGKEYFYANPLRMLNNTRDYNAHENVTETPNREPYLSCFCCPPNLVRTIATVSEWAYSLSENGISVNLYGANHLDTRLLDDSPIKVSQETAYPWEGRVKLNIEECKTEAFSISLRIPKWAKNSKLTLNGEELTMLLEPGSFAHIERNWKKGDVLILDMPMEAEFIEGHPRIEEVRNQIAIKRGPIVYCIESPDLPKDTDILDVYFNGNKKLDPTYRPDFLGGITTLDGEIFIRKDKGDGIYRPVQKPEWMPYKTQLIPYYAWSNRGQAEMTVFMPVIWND

[5] = biological target: T6, ZGAL_3147 (DagA1, GH127-1) (Zobellia galactanivorans, UniProt G0L001); test: FACE and MALDI MS, E. coli soluble lysate; format: biochemical; details: 0.5% hexasaccharide fraction, 150 mM NaCl, 3.75 mM CaCl2, 100 mM HEPES pH 7.5, room temperature overnight; vector-only lysate as control
T6 construct: gene zobellia_3147; recombinant, soluble lysate of E. coli BL21(DE3), pFO4
T6 sequence (G0L001 20-681): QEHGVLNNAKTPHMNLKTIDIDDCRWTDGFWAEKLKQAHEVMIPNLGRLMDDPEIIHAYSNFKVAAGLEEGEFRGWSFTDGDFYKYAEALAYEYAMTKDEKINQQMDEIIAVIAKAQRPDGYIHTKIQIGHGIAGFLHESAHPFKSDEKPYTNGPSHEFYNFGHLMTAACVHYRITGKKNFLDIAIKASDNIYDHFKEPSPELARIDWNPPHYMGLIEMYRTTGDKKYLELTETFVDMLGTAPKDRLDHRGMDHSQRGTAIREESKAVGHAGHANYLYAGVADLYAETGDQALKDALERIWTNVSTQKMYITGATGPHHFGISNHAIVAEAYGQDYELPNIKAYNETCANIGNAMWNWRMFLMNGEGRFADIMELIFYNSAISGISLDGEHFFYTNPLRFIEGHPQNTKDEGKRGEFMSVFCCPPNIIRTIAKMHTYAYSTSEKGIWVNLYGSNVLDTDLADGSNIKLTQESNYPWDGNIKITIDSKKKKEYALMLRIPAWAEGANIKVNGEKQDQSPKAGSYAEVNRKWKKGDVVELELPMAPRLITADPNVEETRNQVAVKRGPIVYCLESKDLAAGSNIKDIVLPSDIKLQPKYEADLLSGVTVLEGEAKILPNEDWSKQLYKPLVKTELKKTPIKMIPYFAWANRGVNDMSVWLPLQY

[6] = biological target: α-1,3-(3,6-anhydro)-D-galactosidase DagB (ZGAL_3152, GH129-like) (Zobellia galactanivorans); test: crystal structure; hanging drop vapor diffusion; 0.14 M Na/K-tartrate, 12% PEG 3350, 9 mg/mL ZGAL_3152; data at 100 K

O=C[C@H](O)[C@H]1OC[C@@H](O)[C@@H]1O [D-AnG]
FACE and MALDI-TOF-MS [1]: indicated the release of the terminal neutral monosaccharide D-AnG and of a pentasaccharide

3,6-anhydro-D-galactonate cycloisomerase DauB (ZGAL_3156) (enzyme)
stoichiometry N [2]: 8 | stoichiometry N [3]: 8

Cc1cc(=O)oc2cc(OS(=O)(=O)O)ccc12 [4-methylumbelliferyl sulfate]
sulfatase activity on artificial substrate (ZGAL_3146 (CgsB1, S1_7)): shown to be active sulfatases using the artificial substrate 4-methylumbelliferyl sulfate | sulfatase activity on artificial substrate (ZGAL_3151 (CgsC, S1_17)): shown to be active sulfatases using the artificial substrate 4-methylumbelliferyl sulfate | sulfatase activity on artificial substrate (ZGAL_3145 (CgsA, S1_19)): shown to be active sulfatases using the artificial substrate 4-methylumbelliferyl sulfate

O=S(=O)(O)O[C@@H]1[C@H](O[C@H]2O[C@@H]3CO[C@H]([C@H]2O)[C@H]3O[C@@H]2O[C@H](CO)[C@H](O)[C@H](O[C@H]3O[C@@H]4CO[C@@H]([C@H]4O)[C@H]3O)[C@H]2O)[C@@H](O)[C@H](O[C@@H]2[C@@H]3OC[C@H]2O[C@H](O[C@H]2[C@@H](OS(=O)(=O)O)[C@@H](CO)OC(O)[C@@H]2O)[C@@H]3O)O[C@@H]1CO (stereo partly drawn) [DP6 beta-kappa-kappa oligosaccharide]
FACE and MALDI MS, E. coli soluble lysate [4]: All the GHs showed activity on the furcellaran hexasaccharide, as demonstrated using FACE | FACE and MALDI MS, E. coli soluble lysate [5]: All the GHs showed activity on the furcellaran hexasaccharide, as demonstrated using FACE

α-1,3-(3,6-anhydro)-D-galactosidase DagB (ZGAL_3152, GH129-like) (enzyme)
stoichiometry N [6]: 2
